# Like-named read-outs stand apart in the source and are kept apart here. Ends that are not written are not given here.
# Columns and labels:
# [1] = Toxicity of peptides injected intraperitoneally; type: in vivo, mice; conditions: intraperitoneal, 10 or 20 μM
# Description: FIGS. 23A, B show the efficacy and toxicity of modified peptides in mice. […] The survival of mice injected intraperitoneally with iron dextran at 48 h after intraperitoneal injection of 10 or 20 μM of the modified peptides. […] Vibrio vulnificus (V. v.) strain CMCP6 was injected at 1×10^6 CFU. […] All mice receive iron dextran by intraperitoneal injection. Where indicated, 1 h later 10^6 bacterial CFU in 100 μL was injected into the peritoneum (opposite side). 1 h later, 100 μL of the peptide at the indicated concentration was administered on the same side as the bacterial injection.
# Since B22a was effective in preventing infection of V. vulnificus in a surgical incision model, we tested it for efficacy for systemic infection in a mouse septicemia model (1). Groups of mice (strain CD-1) were first injected with […], followed 1 h later with an intraperitoneal injection of 1×10e6 colony forming units of V. vulnificus strain […]. The B22a was then injected intraperitoneally 1 h later and morbidity was monitored hourly for two days.
# PB22N and other modified peptides were tested in a septicemic mouse model. V. vulnificus is a highly-pathogenic bacterium, causing septicemia and high mortality. In mice injected intraperitoneally with V. vulnificus, the majority of the mice had to be euthanized within 24 h due to severe symptoms associated with septicemia (FIG. 23B). […] PB22N was effective in preventing mice from succumbing to systemic infection by the highly virulent V. vulnificus.
# [2] = test system: human red blood cells (hRBCs); experiment: Hemolytic activity; type: cell-based
# Description: The amount of hemoglobin released was measured by the absorbance at 435 nm after a 60-minute incubation with the antimicrobial peptide. The percentage of hRBC lysis was normalized to the amount hemoglobin released by the suspension of the hRBCs in deionized water. The background amount of hRBC lysis was determined by adding phosphate buffered saline (PBS) at the same volume as 8 μM of the peptide to the hRBC for 1 h.
# The hemolytic activities of peptides were determined using human red blood cells (hRBCs) (Innovative Research, Inc., cat. # IPLA-WB3-18103). The hRBCs were washed three times with PBS and then resuspended in PBS. The hRBCs solution was mixed with serial dilutions of the peptides in PBS buffer. The reaction mixtures were incubated for 45 min at 37° C. After centrifugation at 94×g for 10 min, the intact hRBCs were pelleted and the hemoglobin released from hRBCs was monitored by measuring the absorbance of the supernatant at 415 nm. The background level of absorbance was measured in sampled incubated with only PBS buffer. 100% hemolysis was determined in sampled incubated with water. The percentage of hemolysis was calculated according to the following equation. Percentage of hemolysis=[(Asample−Ablank)/Awater]*100%
# Mammalian cells are thought to be less susceptible to cathelicidin peptides in part because the composition of their membrane will be less likely to interact with the peptides. To address this directly, human red blood cells (hRBCs) were tested for lysis after a 45-minute incubation with the peptides. The total lysis of hRBCs was determined by adding water to the cells. The amount of lysis during handling was determined by the addition of phosphate buffered saline at the same volume as that of the peptides.
# Cultured human cells = experiment: MTT cytotoxicity assay; type: cell-based
# Klebsiella pneumoniae = conditions: Table 5
# Description: (§1) Antimicrobial activity was determined using the broth microdilution method based on the general recommendation of the Clinical and Laboratory Standards Institute. Bacteria were grown in Mueller-Hinton broth at 37° C. until OD625 reached 0.06, and then bacteria were further diluted into 1:20 for later use. […] 10 microliter (μL) of diluted bacteria was mixed with 90 μL of peptides at varying concentrations followed by incubation at 37° C. for 16-18 hours. The MIC is the lowest peptide concentration at which visible growth was inhibited. The MIC value was determined at least twice in independent experiments and typically in 3-4 assays.
# Description for Escherichia coli: as §1
substance,measurement,setting,value
Ac-FRKKLKKLFKKLSPVIPLLKLG-NH2 [AB22a],Toxicity signs in mice injected with peptide,[1],no obvious effects on mice behavior or appearance
same,Toxicity signs in mice injected with peptide,[1]; listed as AB22N,no obvious symptoms were observed
GRFKRLRKKFKKLFKKLSPVIPLLHLG [BMAP-27A],RBC lysis,[2],decreased RBC lysis compared to the control H2O
same,"Cytotoxicity, MTT assay",Cultured human cells,no increased cytotoxicity compared to the controls
same,Minimal inhibitory concentration,Escherichia coli,8 µg/mL
same,Minimal inhibitory concentration,Escherichia coli; E. coli ATCC 25922,2 µg/mL
same,Minimal inhibitory concentration,Escherichia coli; E. coli ATCC 35218,2 µg/mL
same,Minimal inhibitory concentration,Escherichia coli; E. coli IU0342,2 µg/mL
Colistin sulfate [reference compound],MIC,"Escherichia coli; Table 5, Escherichia coli ATCC25922, antibiotic resistance none",1 µM
same,MIC,"Klebsiella pneumoniae; Klebsiella pneumonia 27, Carbapenem resistant",>32 µM
same,MIC,"Klebsiella pneumoniae; Klebsiella pneumonia 49, Carbapenem resistant",4 µM
same,MIC,"Klebsiella pneumoniae; Klebsiella pneumonia 83, Carbapenem resistant",2 µM
same,MIC,"Klebsiella pneumoniae; Klebsiella pneumonia 84, Carbapenem resistant",2 µM
same,MIC,"Klebsiella pneumoniae; Klebsiella pneumonia 88, Carbapenem resistant (NDM1+)",16 µM
same,MIC,"Klebsiella pneumoniae; Klebsiella pneumonia 262, Carbapenem resistant (NDM1+)",16 µM
GRAKRLRKKLKKLAKKLSPVIPLLHLG [BMAP-27C],RBC lysis,[2],decreased RBC lysis compared to the control H2O
same,"Cytotoxicity, MTT assay",Cultured human cells,no increased cytotoxicity compared to the controls
same,Minimal inhibitory concentration,Escherichia coli,32 µg/mL
same,Minimal inhibitory concentration,Escherichia coli; E. coli ATCC 35218,4 µg/mL
